Here are results for 5 compounds from PMC2358886, “Evolution of pharmacologic specificity in the pregnane X receptor” (BMC Evolutionary Biology, 2008).

The target of series [1] is T1, rat PXR (Rattus norvegicus, UniProt Q9R1A7).
T1 sequence (Q9R1A7 1-431): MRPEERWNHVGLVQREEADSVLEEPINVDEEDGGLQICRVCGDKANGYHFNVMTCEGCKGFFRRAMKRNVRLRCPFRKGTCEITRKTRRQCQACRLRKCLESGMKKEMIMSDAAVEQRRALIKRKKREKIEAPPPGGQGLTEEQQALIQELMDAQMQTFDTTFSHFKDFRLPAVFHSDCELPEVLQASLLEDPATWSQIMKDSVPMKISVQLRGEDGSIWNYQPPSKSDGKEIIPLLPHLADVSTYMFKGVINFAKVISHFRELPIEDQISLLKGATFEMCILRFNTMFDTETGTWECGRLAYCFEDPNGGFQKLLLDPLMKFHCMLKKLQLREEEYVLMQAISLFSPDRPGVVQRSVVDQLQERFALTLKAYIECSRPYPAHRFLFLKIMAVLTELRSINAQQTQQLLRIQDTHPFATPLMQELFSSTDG

Series [2] concerns the target T2, zebrafish PXR (Danio rerio, UniProt A5WYG8).
T2 sequence (A5WYG8 144-430): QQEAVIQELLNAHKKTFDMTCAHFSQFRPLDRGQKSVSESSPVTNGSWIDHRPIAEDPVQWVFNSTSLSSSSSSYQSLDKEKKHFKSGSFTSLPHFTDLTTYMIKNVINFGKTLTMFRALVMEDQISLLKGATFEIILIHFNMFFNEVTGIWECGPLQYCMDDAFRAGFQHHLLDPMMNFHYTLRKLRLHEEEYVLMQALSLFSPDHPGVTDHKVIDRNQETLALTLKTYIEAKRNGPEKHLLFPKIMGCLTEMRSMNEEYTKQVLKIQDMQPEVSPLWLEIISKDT

Series [3] deals with T3, rabbit PXR (Oryctolagus cuniculus, UniProt Q9TU02).
T3 sequence (Q9TU02 1-411): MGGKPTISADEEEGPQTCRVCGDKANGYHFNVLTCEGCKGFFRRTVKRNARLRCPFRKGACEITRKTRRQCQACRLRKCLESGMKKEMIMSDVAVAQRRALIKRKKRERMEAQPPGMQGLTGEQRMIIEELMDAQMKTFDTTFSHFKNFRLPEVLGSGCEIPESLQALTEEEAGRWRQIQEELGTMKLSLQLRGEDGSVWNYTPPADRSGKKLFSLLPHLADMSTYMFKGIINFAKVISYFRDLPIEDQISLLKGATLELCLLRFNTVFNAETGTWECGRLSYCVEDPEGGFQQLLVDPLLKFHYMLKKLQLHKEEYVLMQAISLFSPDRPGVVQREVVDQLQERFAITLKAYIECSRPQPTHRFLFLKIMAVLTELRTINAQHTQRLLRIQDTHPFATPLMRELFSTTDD

Series [4] addresses T4, chicken PXR (Gallus gallus, UniProt Q9DFH3).
T4 sequence (Q9DFH3 1-391): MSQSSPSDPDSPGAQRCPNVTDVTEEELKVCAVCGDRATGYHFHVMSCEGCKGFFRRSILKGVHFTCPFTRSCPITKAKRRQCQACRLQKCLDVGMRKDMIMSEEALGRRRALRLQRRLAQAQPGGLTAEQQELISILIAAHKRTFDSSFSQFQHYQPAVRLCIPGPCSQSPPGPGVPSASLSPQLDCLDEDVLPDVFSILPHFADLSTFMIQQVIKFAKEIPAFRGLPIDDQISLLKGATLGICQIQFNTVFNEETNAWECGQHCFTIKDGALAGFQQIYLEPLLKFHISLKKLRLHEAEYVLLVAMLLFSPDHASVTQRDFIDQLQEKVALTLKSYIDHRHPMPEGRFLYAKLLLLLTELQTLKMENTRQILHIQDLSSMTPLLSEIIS
The conditions noted are these: for Chicken PXR Activity: -log(EC50), EC50 in molar units.

Series [5] relates to HepG2 cells.
For series [6], the target named is T5, human PXR (Homo sapiens, UniProt O75469).
T5 sequence (O75469 1-434): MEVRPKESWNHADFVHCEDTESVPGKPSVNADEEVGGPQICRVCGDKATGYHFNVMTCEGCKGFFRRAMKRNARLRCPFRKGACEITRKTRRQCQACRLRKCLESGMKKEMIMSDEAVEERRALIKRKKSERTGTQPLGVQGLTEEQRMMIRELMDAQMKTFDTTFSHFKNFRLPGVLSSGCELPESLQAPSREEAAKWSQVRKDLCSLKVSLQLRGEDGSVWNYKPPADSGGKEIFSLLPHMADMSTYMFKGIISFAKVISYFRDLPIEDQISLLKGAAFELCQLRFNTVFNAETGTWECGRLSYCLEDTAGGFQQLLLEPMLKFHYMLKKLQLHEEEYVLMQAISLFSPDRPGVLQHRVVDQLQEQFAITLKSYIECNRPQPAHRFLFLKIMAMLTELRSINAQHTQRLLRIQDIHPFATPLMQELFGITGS

Series [7] concerns the target T6, mouse PXR (Mus musculus, UniProt O54915).
T6 sequence (O54915 1-431): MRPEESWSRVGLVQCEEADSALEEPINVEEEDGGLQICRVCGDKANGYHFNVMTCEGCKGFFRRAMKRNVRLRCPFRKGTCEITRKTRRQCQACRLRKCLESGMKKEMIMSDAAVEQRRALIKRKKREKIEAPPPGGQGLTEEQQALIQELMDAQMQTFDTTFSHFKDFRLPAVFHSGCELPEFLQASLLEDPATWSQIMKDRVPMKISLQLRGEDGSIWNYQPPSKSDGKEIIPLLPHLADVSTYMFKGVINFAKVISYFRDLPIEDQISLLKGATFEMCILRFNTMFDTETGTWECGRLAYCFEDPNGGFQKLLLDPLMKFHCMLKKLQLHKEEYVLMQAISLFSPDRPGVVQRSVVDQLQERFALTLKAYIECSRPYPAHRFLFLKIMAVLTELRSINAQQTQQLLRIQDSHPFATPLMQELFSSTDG

In series [8] the target is T5, human PXR. Put plainly: PXR activation luciferase reporter assay, human PXR in HepG2-NTCP cells.
The test system of the next series is Ciona VDR/PXR. Put plainly: Activation of Ciona VDR/PXR (LBD/GAL4 chimeric receptor) luciferase reporter assay. Format: cell-based, Ciona intestinalis. Conditions: screening; reference maximal activator 20 μM 6-formylindolo-[3,2-b]carbazole. The text has this: The LBD of Ciona VDR/PXR was cloned from cDNA fragments generously provided by Professors Yuji Kohara and Norituki Satoh, and then inserted into the PM2-GAL4 plasmid to create an LBD/GAL4 chimeric receptor.
The LBD of Xenopus tropicalis (Western clawed frog) PXR (xtPXR) was cloned by PCR from RNA extracted from ovary of an adult female frog. Ciona VDR/PXR was cloned from cDNA fragments ciem829d05 and cilv048e18 provided by Professor Yuji Kohara (Center for Genetic Resource Information, National Institute of Genetics, Research Organization of Information and Systems, Mishima, Japan) and Professor Noriyuki Satoh (Kyoto University, Kyoto, Japan), with analysis of the cDNA clones supported by Grant-in-aid for Scientific Research on Priority Area "Genome" of Ministry of Education, Culture, Sports, Science and Technology, Japan.
The creation of a HepG2 (human liver) cell line stably expressing the human Na^+-taurocholate cotransporter (NTCP) has been previously reported. HepG2-NTCP cells were grown in modified Eagle's medium-α containing 10% fetal bovine serum and 1% penicillin/streptomycin (Invitrogen, Carlsbad, CA, USA). Plasmids containing cDNAs for 8 PXRs from 7 species (human, mouse, rat, rabbit, chicken [also called chicken X receptor, CXR], African clawed frog [also termed Xenopus laevis benzoate X receptors α and β, BXRα and BXRβ ], zebrafish), as well as the reporter constructs tk-UAS-Luc and CYP3A4-PXRE-Luc, and 'empty' vectors pCDNA, PsG5, and PM2 were generously provided by SA Kliewer, JT Moore, and LB Moore (GlaxoSmithKline, Research Triangle Park, NC, USA). […] For the full-length expression vectors, the reporter plasmid was CYP3A4-PXRE-Luc, a construct that contains a promoter element from CYP3A4 (recognized by PXR DBDs) driving luciferase expression. For the GAL4/LBD expression constructs, the reporter plasmid was tk-UAS-Luc, which contains GAL4 DNA binding elements driving luciferase expression. The following transfection ratios of reporter, receptor, and β-galactosidase plasmids were used (ng/well): human, mouse, rabbit, and rat PXRs – 25/2.7/20; chicken PXR – 10/1/20; Xenopus tropicalis PXR, zebrafish PXR, and Ciona VDR/PXR – 75/50/20.
The PXR activation assay was a luciferase-based reporter assay. On day 1, 30,000 cells/well were seeded onto 96-well white opaque plates (Corning-Costar, Corning, NY, USA). On day 2, cells were transfected using the calcium phosphate precipitation method with expression vector or 'empty' control vector and luciferase reporter plasmid. On day 3, the cells were washed and then incubated with medium containing charcoal-dextran treated fetal bovine serum (Hyclone, Logan, UT, USA) and drugs or vehicle. On day 4, the cells were washed and the medium replaced with serum-free medium. […]

The target of series [9] is T2, zebrafish PXR. Put plainly: cell-based. The conditions noted are these: zfPXR Activity, -log(EC50), EC50 in molar units, activation of zebrafish PXR.
Series [10] concerns the target T3, rabbit PXR. Put plainly: PXR activation luciferase reporter assay, rabbit PXR. Background: In a reporter assay the amount or activity of a reporter protein is the signal.
Series [11] has as its target T4, chicken PXR. Put plainly: cell-based.
The target of series [12] is T6, mouse PXR. Put plainly: cell-based.
The test system of series [13] is HepG2 cells. As to the kind of experiment: Toxicity assays in HepG2 cells (MTT and alamar blue reduction). The conditions noted are these: lowest concentration that produced significant toxicity in the HepG2 cells.
The target in series [14] is T1, rat PXR. Put plainly: cell-based.
Where [15] appears, read: relative to 20 μM pregnenolone 16α-carbonitrile, assigned an efficacy of 1.0.

One may read the EC50 as the concentration needed to bring the measured effect to its halfway point.

Entries after “also recorded” stand apart in the source; their conditions may differ. Like-named read-outs stand apart in the source and are kept apart here.

On to `CC(CCC[C@@H](C)[C@H]1CC[C@H]2[C@@H]3[C@H](O)C[C@@H]4C[C@H](O)CC[C@]4(C)[C@H]3C[C@H](O)[C@]12C)C(=O)NCCS(=O)(=O)O` (stereo partly drawn) [BI038, 3α,7α,12αtTrihydroxy-5β-cholestan-27-oic acid, taurine conjugated], for which the “Rat PXR Activity” value at rat PXR [1] is given as “No effect”. Moreover, the “zfPXR Activity” value at zebrafish PXR [2] (-log(EC50), EC50 in molar units, activation of zebrafish PXR) is “None”. Also, the “Rabbit PXR Activity” value on rabbit PXR [3] is listed as “No effect”. The “Chicken PXR Activity” value on chicken PXR [4] was “No effect”. In the series with HepG2 cells [5], this compound yielded a Toxicity of 200 µM. Further, at human PXR [6], the “hPXR Activity” value was “None”. Also, the “Mouse PXR Activity” value at mouse PXR [7] is on record as “No effect”.

With `C[C@H](CCC(=O)O)[C@H]1CC[C@H]2[C@@H]3C[C@@H](O)[C@@H]4C[C@H](O)CC[C@]4(C)[C@H]3CC[C@]12C` [BI004, Murideoxycholic acid], on rat PXR [1], the “Rat PXR Activity” value turned out to be 4.80. Moreover, the “Rabbit PXR Activity” value on rabbit PXR [3] is reported as 4.52. Further, the “Chicken PXR Activity” value at chicken PXR [4] is recorded as “No effect”. Also, the “Mouse PXR Activity” value on mouse PXR [7] turned out to be 5.09.

With `NC(=O)N1c2ccccc2C=Cc2ccccc21` [MI7, Carbamazepine], the “zfPXR Activity” value on zebrafish PXR [2] was “None”. Further, on human PXR [8] (hPXR Activity, -log(EC50), EC50 in molar units, activation of human PXR), the EC50 is 63100 nM. The “Activation of Ciona VDR/PXR (in words)” value in the series on Ciona VDR/PXR is reported as “micromolar range; also recorded: Weaker activation”. Further, in the series with HepG2 cells [5] (human, 24 hr), the Toxicity was determined as 200 µM.

Take `Clc1cc2c(cc1Cl)Oc1cc(Cl)c(Cl)cc1O2` [MI34, 2,3,7,8-tetrachlorodibenzo-p-dioxin]: on rat PXR [1] (setting [15]), the “Rat PXR efficacy, ε” value is recorded as 0.83. Besides, the concentration for a half-maximal effect (EC50) on zebrafish PXR [9] is 479 nM; at human PXR [8], 67.6 nM; on chicken PXR [11], 91.2 nM; on mouse PXR [12], 100 nM; at rat PXR [14] it was 200 nM. In addition, on rabbit PXR [10], the “Activation of rabbit PXR (in words)” value was “inactive”. For the same compound, the “Rabbit PXR Activity” value on rabbit PXR [10] (-log(EC50), EC50 in molar units) is given as “No effect”. In addition, the “zfPXR Efficacy” value at zebrafish PXR [2] (relative to 20 μM 5α-androstan-3α-ol, assigned an efficacy of 1.0) was found to be 6.17. For the same compound, the “hPXR Efficacy” value at human PXR [8] (relative to 10 μM rifampicin, assigned an efficacy of 1.0) turned out to be 1.78. Besides, the “Chicken PXR efficacy, ε” value at chicken PXR [4] (relative to 20 μM nifedipine, assigned an efficacy of 1.0) is recorded as 0.06. For the same compound, the Toxicity in the series on HepG2 cells [13] amounted to 10 µM. The “Mouse PXR efficacy, ε” value at mouse PXR [7] (setting [15]) turned out to be 1.60.

Turning to 6-formylindolo-[3,2-b]carbazole, the “Activation of Ciona VDR/PXR (in words)” value in the series on Ciona VDR/PXR was “low micromolar range; also recorded: robustly activated”.
